Experimental data reported in patent publication US11780845B2 (Relay Therapeutics, Inc., priority 2019, dated 2023).

Biological target: FGFR2 (Homo sapiens (Human), UniProt P21802)
Experiment: FGFR2 Biochemical Caliper Assay
Experimental: Compounds of the present invention were also tested in a FGFR2 Biochemical Caliper Assay. Compounds were prepared in 10 mM DMSO solution and serially diluted into 11 concentrations by 3-fold dilution. […] 5 uL of ATP solution (100 uM) was added to start the reaction and the plate was incubated for 90 minutes, then 70 uL of stopping buffer (0.5M EDTA) was added to terminate the reaction. Each well was analyzed using EZ reader.

Chain of FGFR2 (P21802 22-821): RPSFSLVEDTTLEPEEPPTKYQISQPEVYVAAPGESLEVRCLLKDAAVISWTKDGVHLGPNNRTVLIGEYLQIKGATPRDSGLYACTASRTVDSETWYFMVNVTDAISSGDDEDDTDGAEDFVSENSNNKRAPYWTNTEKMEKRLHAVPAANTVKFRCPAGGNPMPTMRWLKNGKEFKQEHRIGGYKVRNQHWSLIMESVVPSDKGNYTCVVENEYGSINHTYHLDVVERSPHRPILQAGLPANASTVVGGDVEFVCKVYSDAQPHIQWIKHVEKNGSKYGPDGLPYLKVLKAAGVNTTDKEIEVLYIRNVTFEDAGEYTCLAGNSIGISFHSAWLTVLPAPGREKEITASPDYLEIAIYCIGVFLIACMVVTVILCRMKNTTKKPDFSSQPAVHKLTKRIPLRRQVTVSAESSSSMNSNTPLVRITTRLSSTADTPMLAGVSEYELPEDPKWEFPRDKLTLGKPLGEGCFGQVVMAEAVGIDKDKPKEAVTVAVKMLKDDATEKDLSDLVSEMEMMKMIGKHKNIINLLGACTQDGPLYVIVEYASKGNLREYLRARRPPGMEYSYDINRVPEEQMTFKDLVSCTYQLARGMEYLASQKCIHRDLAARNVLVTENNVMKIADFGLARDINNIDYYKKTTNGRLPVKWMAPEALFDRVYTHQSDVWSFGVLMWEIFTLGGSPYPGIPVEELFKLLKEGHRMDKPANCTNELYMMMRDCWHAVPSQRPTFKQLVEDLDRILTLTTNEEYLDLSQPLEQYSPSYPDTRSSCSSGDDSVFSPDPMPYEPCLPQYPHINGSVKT

IC50	Structure (SMILES)
250 to 1000 nM	C=C(C)C(=O)Nc1ccc(-c2c(C3=CC[C@@H](C(=O)NCC(C)(C)OC)CC3)c3c(N)ncnc3n2C)cc1 (single isomer, unassigned) [Example 431]
1000 to 100000 nM	C=C(C)C(=O)Nc1ccc(-c2c(C3=CC[C@H](C(=O)NCC(C)(C)OC)CC3)c3c(N)ncnc3n2C)cc1 (single isomer, unassigned) [Example 432]
250 to 1000 nM	C=C(C)C(=O)Nc1ccc(-c2c(-c3ccc(C(=O)N(C)C[C@H]4CCOC4)cc3)c3c(N)ncnc3n2C)cc1 (single isomer, unassigned) [Example 472]
250 to 1000 nM	C=C(C)C(=O)Nc1ccc(-c2c(-c3ccc(C(=O)N(C)C[C@@H]4CCOC4)cc3)c3c(N)ncnc3n2C)cc1 (single isomer, unassigned) [Example 473]
250 to 1000 nM	C=C(C)C(=O)Nc1ccc(-c2c(-c3ccc(C(=O)N4CCCC4)cc3)c3c(N)ncnc3n2C)c([C@H]2CCCO2)c1 (single isomer, unassigned) [Example 509]
< 100 nM	C=C(C)C(=O)Nc1ccc(-c2c(-c3ccc(C(=O)N4CCCC4)cc3)c3c(N)ncnc3n2C)c([C@@H]2CCCO2)c1 (single isomer, unassigned) [Example 510]
1000 to 100000 nM	C=C(C)C(=O)Nc1ccc(-c2c(C3=CC[C@@H](Oc4ccn(C)n4)CC3)c3c(N)ncnc3n2C)cc1 (single isomer, unassigned) [Example 549]
250 to 1000 nM	C=C(C)C(=O)Nc1ccc(-c2c(C3=CC[C@H](C(=O)N4CCC[C@H]4C#N)CC3)c3c(N)ncnc3n2C)cc1 (single isomer, unassigned) [Example 574]
1000 to 100000 nM	C=C(C)C(=O)Nc1ccc(-c2c(C3=CC[C@H](C(=O)N4CC[C@@H](CO)C4)CC3)c3c(N)ncnc3n2C)cc1 (single isomer, unassigned) [Example 575]
1000 to 100000 nM	C=C(C)C(=O)Nc1ccc(-c2c(C3=CC[C@H](C(=O)N4CC[C@@H](F)C4)CC3)c3c(N)ncnc3n2C)cc1 (single isomer, unassigned) [Example 576]
250 to 1000 nM	Cn1c(-c2ccc(NC(=O)C3=CCC3)cc2)c(C2=CC[C@H](C(=O)N3CCCC3)CC2)c2c(N)ncnc21 (single isomer, unassigned) [Example 579]
1000 to 100000 nM	C=C(C)C(=O)Nc1ccc(-c2c(C3=CC[C@H](C(=O)N4CC[C@@H](OC)C4)CC3)c3c(N)ncnc3n2C)cc1 (single isomer, unassigned) [Example 580]
250 to 1000 nM	C=C(C)C(=O)Nc1ccc(-c2c(C3=CC[C@@H](C(=O)N4CC[C@@H](CO)C4)CC3)c3c(N)ncnc3n2C)cc1 (single isomer, unassigned) [Example 583]
100 to 250 nM	Cn1c(-c2ccc(NC(=O)[C@H]3CO3)cc2)c(-c2ccc(C(=O)N3CCCC3)cc2)c2c(N)ncnc21 (single isomer, unassigned) [Example 585]
100 to 250 nM	C=C(C)C(=O)Nc1ccc(-c2c(C3=CC[C@@H](C(=O)N4CC[C@@H](F)C4)CC3)c3c(N)ncnc3n2C)cc1 (single isomer, unassigned) [Example 591]
250 to 1000 nM	C=C(C)C(=O)Nc1ccc(-c2c(C3=CC[C@@H](C(=O)N4CC[C@@H](OC)C4)CC3)c3c(N)ncnc3n2C)cc1 (single isomer, unassigned) [Example 593]
250 to 1000 nM	C=CCC(=O)Nc1ccc(-c2c(-c3ccc(Oc4cccc(C)n4)c(OC)c3)c3c(N)ncnc3n2C)cc1 [Example 2]
< 100 nM	C=CC(=O)N1CCCc2cc(-c3c(-c4ccc(Oc5cccc(C)n5)c(OC)c4)c4c(N)ncnc4n3C)ccc21 [Example 3]
100 to 250 nM	C=CC(=O)N(C)c1ccc(-c2c(-c3ccc(Oc4cccc(C)n4)c(OC)c3)c3c(N)ncnc3n2C)cc1 [Example 6]
< 100 nM	C=CC(=O)Nc1cccc(-c2c(-c3ccc(Oc4cccc(C)n4)c(OC)c3)c3c(N)ncnc3n2C)c1 [Example 7]
< 100 nM	C=CC(=O)N1Cc2ccc(-c3c(-c4ccc(Oc5cccc(C)n5)c(OC)c4)c4c(N)ncnc4n3C)cc2C1 [Example 8]
< 100 nM	C=CC(=O)N(C)c1ccc(-c2c(-c3ccc(Oc4cccc(C)n4)cc3)c3c(N)ncnc3n2C)cc1 [Example 9]

IC50	Structure (SMILES)
< 100 nM	C=CC(=O)N1CCc2cc(-c3c(-c4ccc(Oc5cccc(C)n5)c(OC)c4)c4c(N)ncnc4n3C)ccc21 [Example 10]
< 100 nM	C=CC(=O)Nc1ccc(-c2c(-c3ccc(Oc4cccc(C)n4)c(C)c3)c3c(N)ncnc3n2C)cc1 [Example 19]
100 to 250 nM	C=CC(=O)N1CCc2cc(-c3c(-c4ccc(Oc5cccc(C)n5)cc4)c4c(N)ncnc4n3C)ccc2C1 [Example 20]
< 100 nM	C=CC(=O)Nc1ccc(-c2c(-c3ccc(Oc4cccc(C)n4)cc3)c3c(N)ncnc3n2C)cc1C [Example 21]
< 100 nM	C=CC(=O)Nc1cccc(-c2c(-c3ccc(Oc4cccc(C)n4)cc3)c3c(N)ncnc3n2C)c1 [Example 22]
250 to 1000 nM	C=C(C)C(=O)Nc1ccc(-c2c(-c3ccc(Oc4ccccc4)cc3)c3c(N)ncnc3n2C)cc1 [Example 23]
< 100 nM	C=CC(=O)Nc1ccc(-c2c(-c3cccc(OC)c3)c3c(N)ncnc3n2C)cc1 [Example 25]
< 100 nM	C=CC(=O)Nc1ccc(-c2c(-c3ccc(Oc4cccc(C)c4)cc3)c3c(N)ncnc3n2C)cc1 [Example 28]
250 to 1000 nM	C=C(C)C(=O)Nc1ccc(-c2c(-c3ccc(Oc4cccc(C)c4)cc3)c3c(N)ncnc3n2C)cc1 [Example 29]
250 to 1000 nM	C=C(C)C(=O)Nc1ccc(-c2c(-c3ccc(Oc4ccccc4)c(OC)c3)c3c(N)ncnc3n2C)cc1 [Example 30]
250 to 1000 nM	C=C(C)C(=O)Nc1ccc(-c2c(-c3ccc(Oc4cccc(C)c4)c(OC)c3)c3c(N)ncnc3n2C)cc1 [Example 33]
< 100 nM	C=CC(=O)Nc1ccc(-c2c(-c3ccc(Oc4cc(C)ccn4)c(OC)c3)c3c(N)ncnc3n2C)cc1 [Example 34]
< 100 nM	C=CC(=O)Nc1ccc(-c2c(Br)c3c(N)ncnc3n2C)cc1 [Example 37]
100 to 250 nM	C=CC(=O)Nc1ccc(-c2c(-c3ccc(Oc4ccncc4)c(OC)c3)c3c(N)ncnc3n2C)cc1 [Example 39]
< 100 nM	C=CC(=O)Nc1ccc(-c2c(-c3ccc(Oc4ccc(C)cn4)c(OC)c3)c3c(N)ncnc3n2C)cc1 [Example 40]
< 100 nM	C=CC(=O)Nc1ccc(-c2c(-c3ccc(Oc4cncc(C)c4)c(OC)c3)c3c(N)ncnc3n2C)cc1 [Example 41]
< 100 nM	C=CC(=O)Nc1ccc(-c2c(-c3ccc(Oc4ncccc4C)c(OC)c3)c3c(N)ncnc3n2C)cc1 [Example 42]
1000 to 100000 nM	CCC(=O)Nc1ccc(-c2c(-c3ccc(Oc4ncccn4)c(OC)c3)c3c(N)ncnc3n2C)cc1 [Example 43]
< 100 nM	C=CC(=O)Nc1ccc(-c2c(-c3ccc(Oc4ccc(C)nc4)c(OC)c3)c3c(N)ncnc3n2C)cc1 [Example 44]
< 100 nM	C=CC(=O)Nc1ccc(-c2c(-c3ccc(OC)c(OC)c3)c3c(N)ncnc3n2C)cc1 [Example 46]
< 100 nM	C=C(C)C(=O)Nc1ccc(-c2c(-c3ccc(Oc4ncccn4)cc3)c3c(N)ncnc3n2C)cc1 [Example 52]
250 to 1000 nM	C=C(C)C(=O)Nc1ccc(-c2c(-c3cccc(OC)c3)c3c(N)ncnc3n2C)cc1 [Example 55]

IC50	Structure (SMILES)
< 100 nM	C=CC(=O)Nc1ccc(-c2c(-c3ccc(Nc4ncccn4)c(OC)c3)c3c(N)ncnc3n2C)cc1 [Example 56]
100 to 250 nM	C=CC(=O)Nc1ccc(-c2c(-c3ccc(N(C)c4ncccn4)c(OC)c3)c3c(N)ncnc3n2C)cc1 [Example 57]
< 100 nM	C=CC(=O)Nc1ccc(-c2c(-c3ccc(Nc4ncccn4)cc3)c3c(N)ncnc3n2C)cc1 [Example 58]
100 to 250 nM	C=C(C)C(=O)Nc1ccc(-c2c(-c3ccc(Nc4ncccn4)cc3)c3c(N)ncnc3n2C)cc1 [Example 59]
< 100 nM	C=CC(=O)Nc1ccc(-c2c(-c3ccc(N(C)c4ncccn4)cc3)c3c(N)ncnc3n2C)cc1 [Example 61]
1000 to 100000 nM	C=C(C)C(=O)Nc1ccc(-c2c(-c3ccc(N(C)c4ncccn4)cc3)c3c(N)ncnc3n2C)cc1 [Example 62]
1000 to 100000 nM	CCC(=O)Nc1ccc(-c2c(-c3ccc(Oc4ncccn4)cc3)c3c(N)ncnc3n2C)cc1 [Example 63]
1000 to 100000 nM	C=C(C)C(=O)Nc1ccc(-c2c(-c3ccc(Oc4ncc(CO)cn4)cc3)c3c(N)ncnc3n2C)cc1 [Example 64]
1000 to 100000 nM	C=C(C)C(=O)Nc1ccc(-c2c(-c3ccc(Oc4ncc(CO)cn4)c(OC)c3)c3c(N)ncnc3n2C)cc1 [Example 65]
1000 to 100000 nM	CCC(=O)Nc1ccc(-c2c(-c3ccc(Oc4cccc(C)n4)c(OC)c3)c3c(N)ncnc3n2C)cc1 [Example 66]
1000 to 100000 nM	CCC(=O)Nc1ccc(-c2c(-c3ccc(Oc4ccccn4)c(OC)c3)c3c(N)ncnc3n2C)cc1 [Example 67]
< 100 nM	C=CC(=O)Nc1ccc(-c2c(-c3ccc(Sc4ncccn4)cc3)c3c(N)ncnc3n2C)cc1 [Example 68]
250 to 1000 nM	C=CC(=O)Nc1ccc(-c2c(-c3ccc(Oc4ncccn4)c(CO)c3)c3c(N)ncnc3n2C)cc1 [Example 71]
250 to 1000 nM	C/C=C/C(=O)Nc1ccc(-c2c(-c3cccc(OC)c3)c3c(N)ncnc3n2C)cc1 [Example 72]
100 to 250 nM	CC#CC(=O)Nc1ccc(-c2c(-c3cccc(OC)c3)c3c(N)ncnc3n2C)cc1 [Example 73]
250 to 1000 nM	C=CC(=O)Nc1ccc(-c2c(C3=CCN(C(=O)C(F)(F)F)CC3)c3c(N)ncnc3n2C)cc1 [Example 74]
100 to 250 nM	C=CC(=O)Nc1ccc(-c2c(-c3ccccc3)c3c(N)ncnc3n2C)cc1 [Example 76]
100 to 250 nM	C=C(C)C(=O)Nc1ccc(-c2c(-c3ccc(Oc4cccc(C)n4)cc3)c3c(N)ncnc3n2CCN2CCOCC2)cc1 [Example 79]
100 to 250 nM	C=C(C)C(=O)Nc1ccc(-c2c(-c3ccc(Oc4cccc(C)n4)cc3)c3c(N)ncnc3n2CCN(C)C)cc1 [Example 80]
< 100 nM	C=CC(=O)Nc1ccc(-c2c(-c3ccc(C(=O)c4ccccc4C)c(OC)c3)c3c(N)ncnc3n2C)cc1 [Example 81]

Structure (SMILES)	IC50
C=CC(=O)Nc1ccc(-c2c(C3=CCNCC3)c3c(N)ncnc3n2C)cc1 [Example 75]	250 to 1000 nM
